Structures can show the parent of a compound that is named as a salt.
What was measured:
[1] = molecular target: T1, Nitric Oxide Synthase (NOS) (Rattus norvegicus, UniProt P29476); test: Binding assay using nitric oxide synthase (NOS), crude preparation from rat brain cytosol, [3H]Na radioligand; settings: test compound 10^−4M, brain cytosol of male SD rats, 10 nM [^3H]Na, 27° C., 90 minutes; for inhibition: read-out: Inhibition (%) of specific binding
T1 construct: each drug was incubated with the brain cytosol (200 μg protein/tube); from tissue; host or cells: whole brain (including cerebellum) of male SD rats, cytosolic supernatant (48,000 x g), passed through Dowex AG50WX-8
Method: Test: Binding Assay Using Nitric Oxide Synthase (NOS)
A crude preparation of NOS was obtained from brains of male SD rats. The whole brain (including cerebellum) was homogenized with 5 volume (W/V) of 50 mM Tris buffer (pH 7.0 at 4° C.) and centrifuged at 48,000×g for 20 minutes. The pellet was discarded and the supernatant was passed through ¼ volume (V/V) of Dowex AG50WX-8 resin (Na^+ form), in order to remove endogenous arginine. The supernatant was collected, the pH was adjusted to 7.0 at 22° C., and this cytosolic preparation was frozen and stored at −80° C. until required. In the binding assay, each drug was incubated with the brain cytosol (200 μg protein/tube) in 0.15 ml (final volume) of 50 mM Tris buffer containing 10 μM CaCl2 and 10 nM [^3H]Na (Amersham, UK). Incubation was performed at 27° C. for 90 minutes and terminated by vacuum filtration through 0.3% polyethyleneimine pretreated GF/B glass fibre filters which were subsequently washed with distilled water (4° C., 4 ml×4). Nonspecific binding was defined by use of […] Na. Data are expressed as inhibition % of specific binding.

SMILES	inhibition [1]	also measured
COc1ccnc(-c2sc(NC(=N)N)nc2C)c1 [(a), 2-Guanidino-4-methyl-5-(4-methoxypyridin-2-yl)thiazole]	99%	–
COc1ccnc(-c2ccc(C)c(NC(=N)N)c2)c1.Cl.Cl [(b), (5-(4-Methoxypyridin-2-yl)-2-methylphenyl)guanidine dihydrochloride]	–	Inhibition (%) of specific binding [1]: 98.9%
Cc1ccnc(C(O)c2sc(NC(=N)N)nc2C)c1 (centres unmarked) [Example 24, N-(5-(hydroxy-(4-methylpyridin-2-yl)methyl)-4-methylthiazol-2-yl)guanidine]	–	melting point: 150.5 to 151.5 °C
CC(=O)NC(c1cc(C)ccn1)c1sc(NC(=N)N)nc1C (centres unmarked) [Example 26, N-(5-(acetylamino-(4-methylpyridin-2-yl)methyl)-4-methylthiazol-2-yl)-guanidine]	–	melting point: 239 to 240 °C

The next lines start with results.

inhibition [1]	SMILES	also measured
100%	CCSC(=N)Nc1cccc(-c2cc(OC)ccn2)c1 [(c), N-(3-(4-Methoxypyridin-2-yl)phenyl)-S-ethylisothiourea dihydrochloride]	–
99.3%	COc1ccnc(-c2ccc3ccc(N)nc3c2)c1 [(d), 2-Amino-7-(4-methoxypyridin-2-yl)quinoline dihydrochloride]	–
98%	Cc1ccnc(-c2ccc3ccc(N)nc3c2)c1 [(e), 2-Amino-7-(4-methylpyridin-2-yl)quinoline dihydrochloride]	–
99.4%	CNc1ccc2ccc(-c3cc(OC)ccn3)cc2n1 [(f), 7-(4-Methoxypyridin-2-yl)-2-methylaminoquinoline dihydrochloride]	–

— US6521643B1, “Pyridine compounds and their pharmaceutical use” (Fujisawa Pharmaceutical Co., Ltd., priority 1999, dated 2003)
